Source: PubChem BioAssay (NCI)
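Interpolation was linear, between the two tested concentrations surrounding the appropriate level; five concentrations were tested over 48 hours in 96-well plates. Definition used: TGI = concentration required for complete inhibition of growth.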

Assays:
Test in all cases: NCI-60 cell line screen, 48 h
XF 498 CNS = test system: XF 498 CNS
HOP-18 NSCLC = test system: HOP-18 NSCLC
EKVX NSCLC = test system: EKVX NSCLC
786-0 renal = test system: 786-0 renal
DMS 273 small cell lung = test system: DMS 273 small cell lung
NCI-H460 lung = test system: NCI-H460 lung
HCC-2998 colon = test system: HCC-2998 colon
SNB-78 CNS = test system: SNB-78 CNS
SF-268 CNS = test system: SF-268 CNS
RPMI-8226 leukemia = test system: RPMI-8226 leukemia
IGROV1 ovarian = test system: IGROV1 ovarian
NCI-H23 lung = test system: NCI-H23 lung
HCT-116 colon = test system: HCT-116 colon
HCT-15 colon = test system: HCT-15 colon
A549 NSCLC = test system: A549 NSCLC
SF-295 CNS = test system: SF-295 CNS
U251 CNS = test system: U251 CNS
NCI-H522 lung = test system: NCI-H522 lung
HT29 colon = test system: HT29 colon
UACC-257 melanoma = test system: UACC-257 melanoma
MOLT-4 leukemia = test system: MOLT-4 leukemia
OVCAR-8 ovarian = test system: OVCAR-8 ovarian
HOP-92 NSCLC = test system: HOP-92 NSCLC
UO-31 renal = test system: UO-31 renal
NCI-H226 lung = test system: NCI-H226 lung
DMS 114 small cell lung = test system: DMS 114 small cell lung
DLD-1 colon = test system: DLD-1 colon
KM20L2 colon = test system: KM20L2 colon
SNB-75 CNS = test system: SNB-75 CNS
M19-MEL melanoma = test system: M19-MEL melanoma
KM12 colon = test system: KM12 colon
LOX IMVI melanoma = test system: LOX IMVI melanoma
SK-MEL-28 melanoma = test system: SK-MEL-28 melanoma
ACHN renal = test system: ACHN renal
RXF 393 renal = test system: RXF 393 renal
SK-MEL-5 melanoma = test system: SK-MEL-5 melanoma
COLO 205 colon = test system: COLO 205 colon
SW-620 colon = test system: SW-620 colon
LXFL 529 NSCLC = test system: LXFL 529 NSCLC
SN12C renal = test system: SN12C renal
SR leukemia = test system: SR leukemia
SK-MEL-2 melanoma = test system: SK-MEL-2 melanoma
OVCAR-5 ovarian = test system: OVCAR-5 ovarian
HOP-62 NSCLC = test system: HOP-62 NSCLC
TK-10 renal = test system: TK-10 renal
MALME-3M melanoma = test system: MALME-3M melanoma
SK-OV-3 ovarian = test system: SK-OV-3 ovarian
OVCAR-3 ovarian = test system: OVCAR-3 ovarian
UACC-62 melanoma = test system: UACC-62 melanoma
M14 melanoma = test system: M14 melanoma
SF-539 CNS = test system: SF-539 CNS
OVCAR-4 ovarian = test system: OVCAR-4 ovarian
HL-60(TB) leukemia = test system: HL-60(TB) leukemia
K-562 leukemia = test system: K-562 leukemia
A498 renal = test system: A498 renal
SNB-19 CNS = test system: SNB-19 CNS
CCRF-CEM leukemia = test system: CCRF-CEM leukemia
CAKI-1 renal = test system: CAKI-1 renal

CC[C@H]1CC(=O)c2c(cc3c(c2O)C(=O)c2ccccc2C3=O)[C@@]1(C#N)C(=O)OC(C)(C)C
TGI (XF 498 CNS): 7.67 µM
TGI (HOP-18 NSCLC): 14.3 µM
TGI (EKVX NSCLC): 36.2 µM
TGI (786-0 renal): 46.4 µM
TGI (DMS 273 small cell lung): 5.97 µM
TGI (NCI-H460 lung): 7.54 µM
TGI (HCC-2998 colon): 17.9 µM
TGI (SNB-78 CNS): > 100 µM
TGI (SF-268 CNS): > 100 µM
TGI (RPMI-8226 leukemia): > 100 µM
TGI (IGROV1 ovarian): 7.11 µM
TGI (NCI-H23 lung): 11.2 µM
TGI (HCT-116 colon): 8.15 µM
TGI (HCT-15 colon): 5.07 µM
TGI (A549 NSCLC): > 100 µM
TGI (SF-295 CNS): 20.9 µM
TGI (U251 CNS): 53.3 µM
TGI (NCI-H522 lung): 6.74 µM
TGI (HT29 colon): 10.1 µM
TGI (UACC-257 melanoma): 5.55 µM
TGI (MOLT-4 leukemia): 8.62 µM
TGI (OVCAR-8 ovarian): 15 µM
TGI (HOP-92 NSCLC): > 100 µM
TGI (UO-31 renal): 8.6 µM
TGI (NCI-H226 lung): 8.82 µM
TGI (DMS 114 small cell lung): 7.97 µM
TGI (DLD-1 colon): 7.08 µM
TGI (KM20L2 colon): 47.4 µM
TGI (SNB-75 CNS): 32 µM
TGI (M19-MEL melanoma): 15.8 µM
TGI (KM12 colon): 7.77 µM
TGI (LOX IMVI melanoma): 36.8 µM
TGI (SK-MEL-28 melanoma): 23 µM
TGI (ACHN renal): 31.7 µM
TGI (RXF 393 renal): 23.1 µM
TGI (SK-MEL-5 melanoma): 3.48 µM
TGI (COLO 205 colon): 3.58 µM
TGI (SW-620 colon): 13.4 µM
TGI (LXFL 529 NSCLC): > 100 µM
TGI (SN12C renal): 12.7 µM
TGI (SR leukemia): > 100 µM
TGI (SK-MEL-2 melanoma): 5.85 µM
TGI (OVCAR-5 ovarian): 46.5 µM
TGI (HOP-62 NSCLC): 5.82 µM
TGI (TK-10 renal): 37.5 µM
TGI (MALME-3M melanoma): 17.8 µM
TGI (SK-OV-3 ovarian): > 100 µM
TGI (OVCAR-3 ovarian): 11 µM
TGI (UACC-62 melanoma): 50.6 µM
TGI (M14 melanoma): 14.5 µM
TGI (SF-539 CNS): 14.3 µM

COc1cc(/C=C2\CCC(C)(CN(C)C)C2=O)cc(OC)c1OC (stereo unspecified)
TGI (OVCAR-4 ovarian): > 100 µM
TGI (XF 498 CNS): > 100 µM
TGI (HOP-18 NSCLC): > 100 µM
TGI (EKVX NSCLC): > 88.3 µM
TGI (786-0 renal): > 100 µM
TGI (DMS 273 small cell lung): > 100 µM
TGI (NCI-H460 lung): > 100 µM
TGI (HCC-2998 colon): > 100 µM
TGI (SNB-78 CNS): 99.4 µM
TGI (SF-268 CNS): > 100 µM
TGI (RPMI-8226 leukemia): > 72.9 µM
TGI (IGROV1 ovarian): > 100 µM
TGI (NCI-H23 lung): > 100 µM
TGI (HCT-116 colon): > 100 µM
TGI (HL-60(TB) leukemia): > 67.2 µM
TGI (K-562 leukemia): > 100 µM
TGI (HCT-15 colon): > 100 µM
TGI (A498 renal): > 100 µM
TGI (A549 NSCLC): > 100 µM
TGI (SF-295 CNS): > 100 µM
TGI (U251 CNS): > 100 µM
TGI (NCI-H522 lung): > 100 µM
TGI (HT29 colon): > 100 µM
TGI (UACC-257 melanoma): > 100 µM
TGI (MOLT-4 leukemia): > 100 µM
TGI (OVCAR-8 ovarian): > 100 µM
TGI (HOP-92 NSCLC): > 100 µM
TGI (SNB-19 CNS): > 100 µM
TGI (UO-31 renal): > 100 µM
TGI (NCI-H226 lung): > 100 µM
TGI (DMS 114 small cell lung): > 100 µM
TGI (DLD-1 colon): > 100 µM
TGI (KM20L2 colon): > 100 µM
TGI (SNB-75 CNS): > 100 µM
TGI (M19-MEL melanoma): > 100 µM
TGI (KM12 colon): > 100 µM
TGI (LOX IMVI melanoma): > 100 µM
TGI (SK-MEL-28 melanoma): > 100 µM
TGI (ACHN renal): > 100 µM
TGI (RXF 393 renal): > 100 µM
TGI (SK-MEL-5 melanoma): > 100 µM
TGI (CCRF-CEM leukemia): > 100 µM
TGI (COLO 205 colon): > 100 µM
TGI (SW-620 colon): > 100 µM
TGI (LXFL 529 NSCLC): > 100 µM
TGI (SN12C renal): > 100 µM
TGI (SR leukemia): > 100 µM
TGI (SK-MEL-2 melanoma): > 100 µM
TGI (OVCAR-5 ovarian): > 100 µM
TGI (HOP-62 NSCLC): > 100 µM
TGI (CAKI-1 renal): > 100 µM
TGI (TK-10 renal): > 100 µM
TGI (MALME-3M melanoma): > 100 µM
TGI (SK-OV-3 ovarian): > 100 µM
TGI (OVCAR-3 ovarian): > 100 µM
TGI (UACC-62 melanoma): > 100 µM
TGI (M14 melanoma): > 100 µM
TGI (SF-539 CNS): > 100 µM

CC(C)(C)OC(=O)C1=C(O)C(C(=O)OC(C)(C)C)C23CCCCC12C(C(=O)OC(C)(C)C)C(O)=C3C(=O)OC(C)(C)C (stereo unspecified)
TGI (OVCAR-4 ovarian): > 100 µM
TGI (XF 498 CNS): > 100 µM
TGI (HOP-18 NSCLC): > 100 µM
TGI (EKVX NSCLC): > 100 µM
TGI (786-0 renal): > 100 µM
TGI (DMS 273 small cell lung): > 100 µM
TGI (NCI-H460 lung): > 100 µM
TGI (HCC-2998 colon): > 100 µM
TGI (SNB-78 CNS): > 100 µM
TGI (SF-268 CNS): > 100 µM
TGI (RPMI-8226 leukemia): > 100 µM
TGI (IGROV1 ovarian): > 100 µM
TGI (NCI-H23 lung): > 100 µM
TGI (HCT-116 colon): > 100 µM
TGI (HL-60(TB) leukemia): > 100 µM
TGI (K-562 leukemia): > 100 µM
TGI (HCT-15 colon): > 100 µM
TGI (A498 renal): > 100 µM
TGI (A549 NSCLC): > 100 µM
TGI (SF-295 CNS): > 100 µM
TGI (U251 CNS): > 100 µM
TGI (NCI-H522 lung): > 100 µM
TGI (HT29 colon): > 100 µM
TGI (UACC-257 melanoma): > 100 µM
TGI (MOLT-4 leukemia): > 100 µM
TGI (OVCAR-8 ovarian): > 100 µM
TGI (HOP-92 NSCLC): > 100 µM
TGI (SNB-19 CNS): > 100 µM
TGI (UO-31 renal): > 100 µM
TGI (NCI-H226 lung): > 100 µM
TGI (DMS 114 small cell lung): > 100 µM
TGI (DLD-1 colon): > 100 µM
TGI (KM20L2 colon): > 100 µM
TGI (SNB-75 CNS): > 100 µM
TGI (M19-MEL melanoma): > 100 µM
TGI (KM12 colon): > 100 µM
TGI (LOX IMVI melanoma): > 100 µM
TGI (ACHN renal): > 100 µM
TGI (RXF 393 renal): > 100 µM
TGI (SK-MEL-5 melanoma): > 100 µM
TGI (CCRF-CEM leukemia): > 100 µM
TGI (COLO 205 colon): > 100 µM
TGI (SW-620 colon): > 100 µM
TGI (LXFL 529 NSCLC): > 100 µM
TGI (SN12C renal): > 100 µM
TGI (SR leukemia): > 100 µM
TGI (SK-MEL-2 melanoma): > 100 µM
TGI (OVCAR-5 ovarian): > 100 µM
TGI (HOP-62 NSCLC): > 100 µM
TGI (CAKI-1 renal): > 100 µM
TGI (TK-10 renal): > 100 µM
TGI (MALME-3M melanoma): > 100 µM
TGI (SK-OV-3 ovarian): > 100 µM
TGI (OVCAR-3 ovarian): > 100 µM
TGI (UACC-62 melanoma): > 100 µM
TGI (M14 melanoma): > 100 µM
TGI (SF-539 CNS): > 100 µM
